From US10179116B2, “Methods, compositions, and kits for treating pain and pruritis” (President and Fellows of Harvard College, priority 2006, dated 2019) come the findings set out here.

Data set [1] has as its system sodium current. The data set can be described thus: Sodium current with TRPA agonist mustard oil and QX-314 (Example 3). Particulars: MO alone, 50 μM. Format: cell-based. As to the method:
MO alone reduces sodium current by 20-30% and reaches a plateau after approximately 3 minutes.

A short description of data set [2]: Sciatic nerve injection, motor function score and placing reflex. On the procedure: (§1) Motor effects were scored according to a scale of 0 (no effect; normal gait and limb placement), 1 (limb movement but with abnormal limb placement and movement) or 2 (complete loss of limb movement). […] For co-application of QX-314 and capsaicin into the para-sciatic nerve region, we injected QX-314 first, followed 10 minutes later by capsaicin, with the idea that QX-314 would be present extracellularly and ready to enter TRPV1 channels as soon as they were activated.
(§2) For sciatic nerve injections, animals were first habituated to handling for 10 days. Lidocaine (0.2% or 2%, 100 μL); QX-314 (0.2%, 100 μL) alone; capsaicin (50 μg in 100 μL) alone, or QX-314 followed by capsaicin (10 minutes interval) were injected into the area of sciatic nerve below the hip joint. Mechanical and thermal thresholds were determined using von Frey filaments and radiant heat. […] Walking, climbing, walking on the rod and placing reflex were examined. […] All experiments were done with the experimenter blinded.

Data set [3] can be described thus: Intraplantar injection, thermal (radiant heat) response latency. Format: in vivo, rat. Particulars: QX-314 at 30 min, capsaicin at 15 and 30 min, together at 2 hours, heat applied for 25 seconds. As to the method: Similar effects were seen examining sensitivity to a standardized noxious radiant heat stimulus. […] This effect remained for 4 hours after the injection (FIG. 3B).

Data set [4] relates to voltage-dependent sodium channels. The data set can be described thus: Whole-cell voltage clamp of sodium current in small capsaicin-sensitive DRG neurons. Particulars: n=25. Format: cell-based, rat. On the procedure:
We recorded current through voltage-dependent sodium channels using whole-cell voltage clamp recordings from adult rat DRG neurons. To select for nociceptors, we recorded from small (24±5 μm; n=25) neurons and tested the neurons for the expression of TRPV1 receptors by a short (1-sec) application of 1 μM capsaicin. In 25/25 of small neurons tested, capsaicin produced a prolonged (10±3 sec) inward current (FIG. 1A, upper panel), consistent with the neurons being nociceptors. Sodium currents were elicited by depolarizing steps from a holding potential of −70 mV.
(§3) Dorsal root ganglia from 6-8 week old Sprague-Dawley rats were removed and placed into […] containing 1% penicillin—streptomycin (Sigma), then treated for 90 minutes with 5 mg/ml collagenase, 1 mg/ml Dispase II (Roche, Indianapolis, Ind.) and for 7 minutes with 0.25% trypsin, followed by addition of 2.5% trypsin inhibitor. Cells were triturated in the presence of […] (50 U), centrifuged through 15% BSA (Sigma), resuspended in 1 ml Neurobasal medium (Sigma), 10 μM AraC, NGF (50 ng/ml) and GDNF (2 ng/ml) and plated onto poly-lysine (500 μg/ml) and laminin (5 mg/ml) coated 35 mm tissue culture dishes (Becton Dickinson) at 8000-9000 per well. Cultures were incubated at 37° C., 5% carbon dioxide. Recordings were made within 48 hours after plating. […]

Data set [5] deals with small diameter DRG neurons. The data set can be described thus: Current clamp, action potential generation in small DRG neurons. Format: cell-based, rat. As to conditions: QX-314 5 mM, capsaicin 1 μM, alone or co-applied.
Method: We also examined the effect of co-applied QX-314 and capsaicin in current clamp using physiological internal and external solutions.
Current clamp recordings were made using the fast current clamp mode of the Axopatch 200A amplifier Pipette solution was 135 mM K gluconate; 2 mM MgCl2; 6 mM KCl; 10 mM HEPES; 5 mM Mg ATP; 0.5 mM Li2GTP; (pH=7.4 with KOH). External solution was 145 mM NaCl; 5 mM KCl; 1 mM MgCl2; 2 mM CaCl210 mM HEPES; 10 mM glucose; (pH adjusted to 7.4 with NaOH). Membrane potential was corrected for a liquid junction potential of −15 mV.
Command protocols were generated and data digitized using a Digidata 1200 A/D interface with pCLAMP 8.2 software (Axon Instruments, Union City, Calif.). Voltage-clamp current records were low pass filtered at 2 kHz and current clamp recordings at 10 kHz (−3 dB, 4 pole Bessel filter).
QX-314 (5 mM), capsaicin (1 μM or 500 nM), or their combination was applied using custom-designed multibarrel fast drug delivery system placed about 200-250 μm from the neuron. Solution exchange was complete in less than a second.
The nature of data set [6]: Sciatic nerve injection, mechanical threshold (von Frey filaments). Format: in vivo, rat. As to conditions: QX-314 0.2%, 100 μL, capsaicin 0.5 μg/μL, 100 μL (for 30 min), or QX-314 then capsaicin, stiffest hair 57 g. As to the method: as §1, §2
Data set [7] can be described thus: Intraplantar injection, mechanical threshold for paw withdrawal (von Frey hairs). Particulars: QX-314 10 μL of 2%, capsaicin 10 μg/10 μL (15 and 30 minutes), or together (15 minutes).
Method: (§4) We next examined if the combination of capsaicin and QX-314 can reduce pain behavior in vivo.
(§5) For intraplantar injections, rats were first habituated to handling and tests performed with the experimenter blind to the treatment. Intraplantar injections of vehicle (20% ethanol, 5% Tween 20 in saline, 10 μL) capsaicin (1 μg/μL), QX-314 (2%) or mixture of capsaicin and QX-314 into the left hindpaw were made and mechanical and thermal sensitivities determined using von Frey hairs and radiant heat respectively.
In data set [8] the test system is sodium channel. The data set can be described thus: Voltage clamp of sodium channel current in small dorsal root ganglion neurons with eugenol (Example 2). Format: cell-based. On the procedure:
Co-application of eugenol and QX-314 produces progressive block that can be complete after 7 minutes. Two examples are depicted, which are representative of 10 experiments with similar results.
We have also shown that eugenol (C10H12O2), an allyl chain-substituted guaiacol, 2-methoxy-4-(2-propenyl)phenol (active ingredient in oil of clove, and a non-pungent agonist of TRPV1 receptors) promotes entry of QX-314 into dorsal root ganglion neurons by activating TRPV1 channels. FIG. 5 depicts voltage clamp recordings of sodium channel current in small dorsal root ganglion neurons. […] Co-application of eugenol and QX-314 produces progressive block that can be complete after 7 minutes. Two examples are depicted, which are representative of 10 experiments with similar results. […] Thus, these experiments indicate that eugenol promotes entry of QX-314 into dorsal root ganglion neurons by activating TRPV1 channels.

Data set [9] can be described thus: Sciatic nerve injection, thermal (radiant heat) response latency. Format: in vivo, rat. As to conditions: QX-314 0.2%, 100 μL, capsaicin 0.5 μg/μL, 100 μL (for 30 min). On the procedure:
as §1, §2

For data set [10], the system named is voltage-dependent sodium channels. The data set can be described thus: Whole-cell voltage clamp of sodium current in large capsaicin-insensitive DRG neurons. Format: cell-based, rat. Particulars: 10-minute application, n=10.
Text: To test whether the ability of co-applied capsaicin and QX-314 to inhibit sodium current is selective for cells that express TRPV1 receptors, we also recorded from large DRG neurons (soma diameter >40 μm) (FIG. 1A, right). […] As for small diameter neurons, QX-314 applied alone had little or no effect on sodium current (current increased by 8±4% after a 10-minute application, n=10). Unlike small diameter neurons, capsaicin had no effect on sodium current in large diameter neurons (average increase by 3±2% after a 10-minute application, n=10).
as §3

Data set [11] can be described thus: Intraplantar injection, spontaneous flinching. Particulars: first 5 min after intraplantar injection.
Method: as §4, §5
The target of data set [12] is T1, TRPV1 receptors (Rattus norvegicus, UniProt O35433).
T1 construct: Dorsal root ganglia from 6-8 week old Sprague-Dawley rats were removed; endogenous in cells; host or cells: primary cultured DRG neurons from 6-8 week old Sprague-Dawley rats
Briefly: Capsaicin-evoked inward current in small DRG neurons (test for TRPV1 expression). Format: cell-based. Particulars: 1-sec application of 1 μM capsaicin.
Method: We recorded current through voltage-dependent sodium channels using whole-cell voltage clamp recordings from adult rat DRG neurons. To select for nociceptors, we recorded from small (24±5 μm; n=25) neurons and tested the neurons for the expression of TRPV1 receptors by a short (1-sec) application of 1 μM capsaicin. […] Sodium currents were elicited by depolarizing steps from a holding potential of −70 mV.
Dorsal root ganglia from 6-8 week old Sprague-Dawley rats were removed and placed into Dulbecco's Minimum Essential Medium containing 1% penicillin—streptomycin (Sigma), then treated for 90 minutes with 5 mg/ml collagenase, 1 mg/ml Dispase II (Roche, Indianapolis, Ind.) and for 7 minutes with 0.25% trypsin, followed by addition of 2.5% trypsin inhibitor. Cells were triturated in the presence of DNAase I inhibitor (50 U), centrifuged through 15% BSA (Sigma), resuspended in 1 ml Neurobasal medium (Sigma), 10 μM AraC, NGF (50 ng/ml) and GDNF (2 ng/ml) and plated onto poly-lysine (500 μg/ml) and laminin (5 mg/ml) coated 35 mm tissue culture dishes (Becton Dickinson) at 8000-9000 per well. Cultures were incubated at 37° C., 5% carbon dioxide. Recordings were made within 48 hours after plating.
(§6) Whole-cell voltage-clamp or current-clamp recordings were made using an Axopatch 200A amplifier (Axon Instruments, Union City, Calif.) and patch pipettes with resistances of 1-2 MΩ. […]

The subject of data set [13] is TRPV1 receptors. Briefly: Capsaicin-evoked inward current in large DRG neurons. Format: cell-based, rat. As to conditions: soma diameter >40 μm; 10 of 10.
Method: Dorsal root ganglia from 6-8 week old Sprague-Dawley rats were removed and placed into Dulbecco's Minimum Essential Medium containing 1% penicillin—streptomycin (Sigma), then treated for 90 minutes with 5 mg/ml collagenase, 1 mg/ml Dispase II (Roche, Indianapolis, Ind.) and for 7 minutes with 0.25% trypsin, followed by addition of 2.5% trypsin inhibitor. Cells were triturated in the presence of DNAase I inhibitor (50 U), centrifuged through 15% BSA (Sigma), resuspended in 1 ml Neurobasal medium (Sigma), 10 μM AraC, NGF (50 ng/ml) and GDNF (2 ng/ml) and plated onto poly-lysine (500 μg/ml) and laminin (5 mg/ml) coated 35 mm tissue culture dishes (Becton Dickinson) at 8000-9000 per well. Cultures were incubated at 37° C., 5% carbon dioxide. Recordings were made within 48 hours after plating. Average size of small neurons chosen as likely nociceptors was 23±6 μm (n=50) and that of large neurons was 48±8 μm (n=10).
as §6

T1 sequence (O35433 whole entry): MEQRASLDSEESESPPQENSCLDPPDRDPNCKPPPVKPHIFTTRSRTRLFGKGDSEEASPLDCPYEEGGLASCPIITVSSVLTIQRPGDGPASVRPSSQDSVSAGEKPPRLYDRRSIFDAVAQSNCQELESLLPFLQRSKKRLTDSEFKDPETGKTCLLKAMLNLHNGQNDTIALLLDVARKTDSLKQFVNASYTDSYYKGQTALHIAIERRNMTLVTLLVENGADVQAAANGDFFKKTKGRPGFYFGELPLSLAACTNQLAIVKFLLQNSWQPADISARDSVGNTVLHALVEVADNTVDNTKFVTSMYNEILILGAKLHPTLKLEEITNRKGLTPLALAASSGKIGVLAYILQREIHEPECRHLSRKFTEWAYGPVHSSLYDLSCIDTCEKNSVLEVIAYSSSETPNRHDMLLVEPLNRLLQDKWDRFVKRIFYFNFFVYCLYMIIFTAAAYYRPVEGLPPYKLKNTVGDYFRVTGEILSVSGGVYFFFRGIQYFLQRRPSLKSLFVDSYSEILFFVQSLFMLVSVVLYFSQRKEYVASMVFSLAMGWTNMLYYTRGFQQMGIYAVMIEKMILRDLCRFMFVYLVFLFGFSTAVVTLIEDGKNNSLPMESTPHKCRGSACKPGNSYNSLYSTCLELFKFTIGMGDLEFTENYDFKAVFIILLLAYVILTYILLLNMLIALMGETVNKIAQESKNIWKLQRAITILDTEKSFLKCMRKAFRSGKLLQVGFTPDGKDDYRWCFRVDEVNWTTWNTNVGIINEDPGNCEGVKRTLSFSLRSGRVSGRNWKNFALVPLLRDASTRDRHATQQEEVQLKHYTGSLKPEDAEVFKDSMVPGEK

On to `C=CCN=C=S` [MO], for which, in [1], the “reduction of sodium current” value is on record as 20-30% and the “time to plateau of sodium current reduction” value is recorded as “approximately 3 minutes”.

Regarding `CC[N+](CC)(CC)CC(=O)Nc1c(C)cccc1C` [QX-314], the “effect on motor function” value in data set [2] (rat, in vivo) is given as “no effect on motor function”. The “effect on thermal response latency / reaction to noxious radiant heat” value in data set [3] is “transiently reduced the thermal response latency”. The “decrease of sodium current” value in data set [4] (bath application of 5 mM QX-314 alone, 5-minute application) turned out to be 3±0.5%. In addition, in data set [5], the “effect on action potential” value is “no effect”. For the same compound, the “effect on mechanical threshold” value in data set [6] is reported as “no significant effect”. The “effect on mechanical threshold for withdrawal response” value in data set [7] is “no significant effect”. Also, the “effect of external QX-314 alone on sodium channels” value in data set [8] (external application) is “no effect”. Further, the “effect on thermal response latency” value in [9] was “no significant effect”. Moreover, the “increase of sodium current” value in data set [10] (QX-314 alone) came out at 8±4%.

For the compound `COc1cc(CNC(=O)CCCC/C=C/C(C)C)ccc1O` [capsaicin], the mean motor score in [2] (capsaicin alone 0.5 μg/μL, 100 μL, within 30 min after injection, scale 0-2) was found to be 0.7±0.2. In data set [2] (sciatic injection), the “animals with sustained flexion of the injected limb” value is given as 4 out of the 6 and the “effect on placing reflex” value was “unchanged”. Further, the “effect on thermal response latency / reaction to noxious radiant heat” value in data set [3] is given as “reduced as expected the thermal response latency”. Moreover, the “inhibition of sodium current” value in data set [4] (capsaicin alone, 1 μM for 1-10 minutes) came out at 31±9%. The “effect on action potential” value in data set [5] is on record as “reduced the action potential amplitude”. Moreover, the “effect on mechanical threshold” value in data set [6] was “reduced”. In addition, the “effect on mechanical threshold for withdrawal response” value in data set [7] is “significantly reduced the mechanical threshold”. The same compound returned a number of flinches in data set [11] of 40±6. Moreover, the “effect on thermal response latency” value in [9] is on record as “reduced”. Further, the “average increase of sodium current” value in data set [10] (capsaicin alone) was 3±2%. Moreover, the “small neurons in which capsaicin produced inward current” value in [12] is listed as 25/25. Moreover, the “duration of prolonged inward current” value in data set [12] (small neurons) was determined as 10 ± 3 s. In addition, the “inward current elicited in large DRG neurons” value in data set [13] is on record as “did not elicit an inward current”.

In the case of `C=CCc1ccc(O)c(OC)c1` [eugenol, 2-methoxy-4-(2-propenyl)phenol], in data set [8] (eugenol alone), the “inhibition of sodium current” value is recorded as 10-20%.

As to `CCN(CC)CC(=O)Nc1c(C)cccc1C` [lidocaine], in data set [2] (rat, in vivo), the “duration of complete loss of placing reflex” value is reported as “at least 30 minutes”; the “effect on motor function” value is “complete paralysis of the lower limb”; the “effect on placing reflex” value is “complete loss of the tactile stimulus-evoked placing reflex”; the “time of full recovery of sensory and motor deficits” value is at most 45 min. Besides, in data set [2] (rat, in vivo, 30 min), the mean motor score worked out at 1.67±0.2.
